From ChEMBL document CHEMBL1201862, “PubChem BioAssay data set” (2004)
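Growth conditions: 96-well plates. Treatment: test compound, 48 hours, 5 concentrations. Analysis: linear interpolation between bracketing concentrations; unreached endpoints set to highest concentration. GI50 is the concentration that inhibits growth by half.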 The source made the active and inactive calls. Cut-off read from the data, not from the text of the source: active = GI50 up to about 1.1 µM and inactive = higher.

What was measured:
Experiment in all cases: inhibition of tumour cell growth, NCI panel, 48 h
[1] = tested on: SK-MEL-2
[2] = tested on: HCC 2998
[3] = tested on: NCI-H522
[4] = tested on: A549
[5] = tested on: OVCAR-3
[6] = tested on: NCI-H23
[7] = tested on: Malme-3M
[8] = tested on: NCI-H460
[9] = tested on: MDA-MB-231
[10] = tested on: Hs-578T
[11] = tested on: T47D
[12] = tested on: 786-0
[13] = tested on: KM12
[14] = tested on: HT-29
[15] = tested on: IGROV-1
[16] = tested on: TK-10
[17] = tested on: MDA-MB-435
[18] = tested on: MOLT-4
[19] = tested on: SF-268

c1ccc([C@@H]2N[C@@]3(CO[Si](c4ccccc4)(c4ccccc4)c4ccccc4)CC[C@H]4CN[C@@H]2[C@H]43)cc1
GI50 [1]: 17.9 µM (inactive)
GI50 [2]: 1.66 µM (inactive)
GI50 [3]: 3.43 µM (inactive)
GI50 [4]: 12.3 µM (inactive)
GI50 [5]: 13.8 µM (inactive)
GI50 [6]: 15.5 µM (inactive)
GI50 [7]: 0.0598 µM (active)
GI50 [8]: 10.4 µM (inactive)
GI50 [9]: 11.8 µM (inactive)
GI50 [10]: 13.8 µM (inactive)
GI50 [11]: 4.07 µM (inactive)
GI50 [12]: 12.4 µM (inactive)
GI50 [13]: 3.62 µM (inactive)
GI50 [14]: 2.55 µM (inactive)
GI50 [15]: 12.8 µM (inactive)
GI50 [16]: 16.7 µM (inactive)
GI50 [17]: 8.51 µM (inactive)
GI50 [18]: 3.75 µM (inactive)
GI50 [19]: 4.63 µM (inactive)

O=C1Nc2ccccc2/C1=C\c1c(-c2ccccc2)nc2n1CCS2
GI50 [1]: 13.3 µM (inactive)
GI50 [2]: 16.4 µM (inactive)
GI50 [3]: 18.7 µM (inactive)
GI50 [4]: 28.4 µM (inactive)
GI50 [5]: 15.6 µM (inactive)
GI50 [6]: 22.9 µM (inactive)
GI50 [7]: 26.9 µM (inactive)
GI50 [8]: 17.3 µM (inactive)
GI50 [9]: 21.4 µM (inactive)
GI50 [10]: 23.4 µM (inactive)
GI50 [11]: 18.7 µM (inactive)
GI50 [12]: 19.6 µM (inactive)
GI50 [13]: 16.8 µM (inactive)
GI50 [14]: 19.5 µM (inactive)
GI50 [15]: 23 µM (inactive)
GI50 [16]: 13.9 µM (inactive)
GI50 [17]: 8.93 µM (inactive)
GI50 [18]: 25.8 µM (inactive)
GI50 [19]: 26.5 µM (inactive)

CC[C@H](C)C(=O)O[C@H]1CCC=C2C=C[C@H](C)[C@H](CC[C@@H]3C[C@@H](O)CC(=O)O3)[C@H]21 [MEVASTATIN]
GI50 [1]: 5.77 µM (inactive)
GI50 [2]: 25.6 µM (inactive)
GI50 [3]: 2.85 µM (inactive)
GI50 [4]: 27.4 µM (inactive)
GI50 [5]: 30.4 µM (inactive)
GI50 [6]: 20.1 µM (inactive)
GI50 [7]: 34.1 µM (inactive)
GI50 [8]: 28 µM (inactive)
GI50 [9]: 3.85 µM (inactive)
GI50 [10]: 3.42 µM (inactive)
GI50 [11]: > 82.8 µM (inactive)
GI50 [12]: 13.3 µM (inactive)
GI50 [13]: 37 µM (inactive)
GI50 [14]: 36.7 µM (inactive)
GI50 [15]: 4.43 µM (inactive)
GI50 [16]: 36.6 µM (inactive)
GI50 [17]: 24.1 µM (inactive)
GI50 [18]: > 47.8 µM (inactive)
GI50 [19]: 7.31 µM (inactive)

Cc1cc2ccccc2n2c1nc1ccc(O)cc12
GI50 [1]: > 10 µM (inactive)
GI50 [2]: > 10 µM (inactive)
GI50 [3]: 9.04 µM (inactive)
GI50 [4]: > 10 µM (inactive)
GI50 [5]: > 10 µM (inactive)
GI50 [6]: > 10 µM (inactive)
GI50 [7]: > 10 µM (inactive)
GI50 [8]: 5.36 µM (inactive)
GI50 [9]: > 10 µM (inactive)
GI50 [10]: > 10 µM (inactive)
GI50 [11]: > 10 µM (inactive)
GI50 [12]: > 10 µM (inactive)
GI50 [13]: > 10 µM (inactive)
GI50 [14]: > 10 µM (inactive)
GI50 [15]: > 10 µM (inactive)
GI50 [16]: > 10 µM (inactive)
GI50 [17]: > 10 µM (inactive)
GI50 [18]: 5.69 µM (inactive)
GI50 [19]: > 10 µM (inactive)

Cc1ccc2cccc3c2c1CC1(C3=O)S(=O)(=O)OCCOS1(=O)=O
GI50 [1]: > 100 µM (inactive)
GI50 [2]: > 100 µM (inactive)
GI50 [3]: > 100 µM (inactive)
GI50 [4]: > 100 µM (inactive)
GI50 [5]: > 100 µM (inactive)
GI50 [6]: > 100 µM (inactive)
GI50 [7]: > 100 µM (inactive)
GI50 [8]: > 100 µM (inactive)
GI50 [9]: > 100 µM (inactive)
GI50 [10]: > 100 µM (inactive)
GI50 [11]: > 100 µM (inactive)
GI50 [12]: > 100 µM (inactive)
GI50 [13]: > 100 µM (inactive)
GI50 [14]: > 100 µM (inactive)
GI50 [15]: > 100 µM (inactive)
GI50 [16]: > 100 µM (inactive)
GI50 [17]: > 100 µM (inactive)
GI50 [18]: > 100 µM (inactive)
GI50 [19]: > 100 µM (inactive)
